In one experiment the target is T1, BRAF V600E (Homo sapiens, UniProt P15056+Q96SW2, V600E).
T1 construct: knock-in of the HiBiT tag to the endogenous BRAF V600E locus; host or cells: A375.10 (A375 clonal line, CRISPR HiBiT knock-in at the endogenous BRAF V600E locus)
Nature of the experiment: BRAF V600E HiBiT Degradation Assay. Type of experiment: cell-based. An outline of the steps: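 Endogenous HiBiT knock-in on BRAF V600E in A375 cells (clone A375.10); 11-point half-log series, top 10 μM, 2, 6 or 24 h at 37° C. Lytic HiBiT luminescence, background-subtracted, normalized to DMSO; 4-parameter fit gives DC50, Emax (residual protein) and IP (inflection point).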
A general note: The HiBiT peptide binds its large partner to form an active luciferase.

Another experiment concerns A375-NRAS^Q61K cells. Nature of the experiment: CTGlo Cell Viability Assay, A375-NRAS^Q61K (A375.11) cells, 96 hours. Particulars: A375.11 (A375-NRAS^Q61K) cells; for Emax / CTGlo A375.11 96 hours Emax: lowest % viability achieved. Type of experiment: cell-based, human. Put shortly: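 A375 cells carrying BRAF V600E and NRAS Q61K were seeded at 250 cells/well with a 10-point half-log dose series (max 10 μM final). After 96 h at 37 °C, viability was read as ATP luminescence (CellTiter-Glo), background-subtracted and normalized to DMSO (100%). GI50 from 4-parameter fit; Emax is the lowest % viability.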

Where [1] appears, read: A375.10 cells, BRAF V600E, 2 hours, inflection point, read-out: HiBiT-Degradation A375.10 BRAF 2 hours IP.
[2] abbreviates: A375.10 cells, BRAF V600E, 2 hours, read-out: HiBiT-Degradation A375.10 BRAF 2 hours DC50.
Setting [3] is: A375.10 cells, BRAF V600E, 2 hours, residual protein remaining, read-out: HiBiT-Degradation A375.10 BRAF 2 hours Emax.
[4] abbreviates: A375.10 cells, BRAF V600E, 2 hours, residual protein remaining.

One may read the GI50 as the concentration giving 50% growth inhibition. A lower GI50 goes with greater sensitivity of the cells.

SMILES strings stand for the structures. Like-named read-outs stand apart in the source and are kept apart here. Where only a bound is given, the exact number is not on record here.

T1 sequence (P15056 whole entry V600E): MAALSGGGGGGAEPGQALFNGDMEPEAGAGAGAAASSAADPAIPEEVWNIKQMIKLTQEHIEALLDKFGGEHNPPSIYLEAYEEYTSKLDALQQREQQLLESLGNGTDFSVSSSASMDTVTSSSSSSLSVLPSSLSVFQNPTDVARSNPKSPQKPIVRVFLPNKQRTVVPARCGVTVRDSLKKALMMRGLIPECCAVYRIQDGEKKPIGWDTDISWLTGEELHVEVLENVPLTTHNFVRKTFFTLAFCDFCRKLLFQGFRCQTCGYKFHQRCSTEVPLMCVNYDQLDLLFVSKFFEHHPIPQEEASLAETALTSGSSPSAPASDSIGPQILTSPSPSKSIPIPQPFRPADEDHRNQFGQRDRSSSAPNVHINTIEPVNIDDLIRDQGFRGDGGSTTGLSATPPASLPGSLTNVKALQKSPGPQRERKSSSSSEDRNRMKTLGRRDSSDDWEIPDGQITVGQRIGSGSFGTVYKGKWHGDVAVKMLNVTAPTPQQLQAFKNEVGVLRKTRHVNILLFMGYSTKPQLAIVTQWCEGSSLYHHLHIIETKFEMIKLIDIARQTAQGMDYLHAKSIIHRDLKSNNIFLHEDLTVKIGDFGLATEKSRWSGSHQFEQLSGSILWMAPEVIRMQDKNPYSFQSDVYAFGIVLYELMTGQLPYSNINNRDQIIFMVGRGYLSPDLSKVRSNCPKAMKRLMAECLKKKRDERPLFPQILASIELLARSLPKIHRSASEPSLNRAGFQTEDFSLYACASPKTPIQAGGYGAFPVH
T1 sequence (Q96SW2 whole entry): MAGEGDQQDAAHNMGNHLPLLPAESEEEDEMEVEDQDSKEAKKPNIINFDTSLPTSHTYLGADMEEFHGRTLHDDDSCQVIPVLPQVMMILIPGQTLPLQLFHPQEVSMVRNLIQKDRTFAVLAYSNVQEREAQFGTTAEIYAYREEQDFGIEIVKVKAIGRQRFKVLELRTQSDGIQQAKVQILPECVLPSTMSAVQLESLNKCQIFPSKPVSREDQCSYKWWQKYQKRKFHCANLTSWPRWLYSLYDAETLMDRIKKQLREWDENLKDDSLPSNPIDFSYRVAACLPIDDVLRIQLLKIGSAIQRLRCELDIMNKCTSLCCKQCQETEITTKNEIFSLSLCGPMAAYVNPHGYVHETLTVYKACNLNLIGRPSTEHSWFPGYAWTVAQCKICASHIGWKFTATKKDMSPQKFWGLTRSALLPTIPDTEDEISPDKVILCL
T1 sequence (Q16531 whole entry partner): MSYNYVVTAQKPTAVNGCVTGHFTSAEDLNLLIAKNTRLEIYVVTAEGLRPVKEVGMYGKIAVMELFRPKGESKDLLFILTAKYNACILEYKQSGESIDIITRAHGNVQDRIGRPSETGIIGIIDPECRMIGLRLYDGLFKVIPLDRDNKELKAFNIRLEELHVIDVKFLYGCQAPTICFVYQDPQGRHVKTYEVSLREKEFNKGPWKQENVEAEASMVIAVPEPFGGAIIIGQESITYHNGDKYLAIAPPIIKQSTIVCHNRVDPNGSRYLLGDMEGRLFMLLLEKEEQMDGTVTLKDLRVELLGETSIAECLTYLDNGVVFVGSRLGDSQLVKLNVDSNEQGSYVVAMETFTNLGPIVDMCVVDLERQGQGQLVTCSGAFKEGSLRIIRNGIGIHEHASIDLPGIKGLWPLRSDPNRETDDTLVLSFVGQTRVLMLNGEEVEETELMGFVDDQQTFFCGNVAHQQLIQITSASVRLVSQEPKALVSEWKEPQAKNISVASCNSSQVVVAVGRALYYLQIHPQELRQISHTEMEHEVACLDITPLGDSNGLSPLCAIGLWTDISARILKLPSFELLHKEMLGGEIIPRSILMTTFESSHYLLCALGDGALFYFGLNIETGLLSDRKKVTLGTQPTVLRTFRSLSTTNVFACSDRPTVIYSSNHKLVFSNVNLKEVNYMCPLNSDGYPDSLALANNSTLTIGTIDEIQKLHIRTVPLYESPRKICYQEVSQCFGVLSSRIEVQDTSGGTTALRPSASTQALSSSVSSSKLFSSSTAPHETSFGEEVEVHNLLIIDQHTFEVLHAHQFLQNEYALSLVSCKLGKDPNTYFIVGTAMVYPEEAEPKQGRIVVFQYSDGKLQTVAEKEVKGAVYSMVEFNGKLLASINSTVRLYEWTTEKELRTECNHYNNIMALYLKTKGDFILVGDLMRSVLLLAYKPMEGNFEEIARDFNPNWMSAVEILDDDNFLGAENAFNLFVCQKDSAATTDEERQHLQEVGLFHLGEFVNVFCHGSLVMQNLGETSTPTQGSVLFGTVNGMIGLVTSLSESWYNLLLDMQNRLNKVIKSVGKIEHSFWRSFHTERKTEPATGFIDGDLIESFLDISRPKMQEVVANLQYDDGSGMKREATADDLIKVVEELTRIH

Consider `CCN(C)S(=O)(=O)Nc1ccc(F)c(Oc2ccc3ncn(CCC4CCN(C5CCC(c6cc7c(cc6F)c(N6CCC(=O)NC6=O)nn7C)CC5)CC4)c(=O)c3c2)c1C#N` (single isomer, unassigned) [Compound 137, 6-[2-cyano-3-[[ethyl(methyl)sulfamoyl]amino]-6-fluoro-phenoxy]-3-[2-[1-[4-[3-(2,4-dioxohexahydropyrimidin-1-yl)-5-fluoro-1-methyl-indazol-6-yl]cyclohexyl]-4-piperidyl]ethyl]-4-oxo-quinazoline], for which the DC50 on BRAF V600E (setting [1]) and on BRAF V600E (setting [2]) was below 1 µM throughout. For the same compound, the Emax is 50 to 90% at BRAF V600E (setting [3]) and 50 to 90% with A375-NRAS^Q61K cells (Homo sapiens, 96 h). The GI50 in the experiment on A375-NRAS^Q61K cells (Homo sapiens, 96 h) was in the range of 1 to 10 µM.

On to `CCN(C)S(=O)(=O)Nc1ccc(F)c(Oc2ccc3ncn(CCC4CCN(C5CCC(c6cc7c(cc6F)c(N6CCC(=O)NC6=O)nn7C)CC5)CC4)c(=O)c3c2)c1C#N` (single isomer, unassigned) [Compound 138, 6-[2-cyano-3-[[ethyl(methyl)sulfamoyl]amino]-6-fluoro-phenoxy]-3-[2-[1-[4-[3-(2,4-dioxohexahydropyrimidin-1-yl)-5-fluoro-1-methyl-indazol-6-yl]cyclohexyl]-4-piperidyl]ethyl]-4-oxo-quinazoline], for which the DC50 at BRAF V600E (setting [1]) was below 1 µM. Moreover, the DC50 at BRAF V600E (setting [2]) lay in the range of 1 to 10 µM. Besides, the “HiBiT-Degradation A375.10 BRAF 2 hours Emax” value at BRAF V600E (setting [4]) is “** (<90% and >50%)”. Moreover, in the experiment on A375-NRAS^Q61K cells, the GI50 is 1 to 10 µM; the “CTGlo A375.11 96 hours Emax” value is “** (<90% and >50%)”.

Regarding `CO[C@H]1CCN(S(=O)(=O)Nc2ccc(F)c(Oc3ccc4ncn([C@H]5COC6(CCN(C7CCC(c8ccc(NC9CCC(=O)NC9=O)cc8F)CC7)CC6)C5)c(=O)c4c3)c2C#N)C1` (single isomer, unassigned) [Compound 140], the DC50 on BRAF V600E (setting [1]) and on BRAF V600E (setting [2]) was below 1 µM throughout. Further, the Emax at BRAF V600E (setting [3]) is below 50%; in the experiment with A375-NRAS^Q61K cells (Homo sapiens, 96 h) it was below 50%. Moreover, the GI50 in the experiment with A375-NRAS^Q61K cells (Homo sapiens, 96 h) is below 1 µM.

With `N#Cc1c(NS(=O)(=O)N2CC[C@@H](F)C2)ccc(F)c1Oc1ccc2ncn(C3COC4(CCN(C5CCC(c6ccc(NC7CCC(=O)NC7=O)cc6F)CC5)CC4)C3)c(=O)c2c1` (single isomer, unassigned) [Compound 143], the DC50 on BRAF V600E (setting [1]) and at BRAF V600E (setting [2]) was below 1 µM throughout. Also, the Emax at BRAF V600E (setting [3]) was below 50%; in the experiment with A375-NRAS^Q61K cells (Homo sapiens, 96 h) it was below 50%. In the experiment with A375-NRAS^Q61K cells (Homo sapiens, 96 h), this compound came in with a GI50 below 1 µM.

Turning to `CN(CCO)S(=O)(=O)Nc1ccc(F)c(Oc2ccc3ncn(C4CC5(CCN(C6CCC(c7cc8c(cc7F)c(N7CCC(=O)NC7=O)nn8C)CC6F)CC5)C4)c(=O)c3c2)c1C#N` (single isomer, unassigned) [Compound 146, 6-[2-cyano-6-fluoro-3-[[2-hydroxyethyl(methyl)sulfamoyl]amino]phenoxy]-3-[7-[4-[3-(2,4-dioxohexahydropyrimidin-1-yl)-5-fluoro-1-methyl-indazol-6-yl]-2-fluoro-cyclohexyl]-7-azaspiro[3.5]nonan-2-yl]-4-oxo-quinazoline], the “HiBiT-Degradation A375.10 BRAF 2 hours Emax” value at BRAF V600E was “** (<90% and >50%)”. The DC50 on BRAF V600E (setting [1]) was below 1 µM. In addition, the DC50 on BRAF V600E (setting [2]) was above 10 µM. Also, in the experiment on A375-NRAS^Q61K cells, the GI50 is above 10 µM; the “CTGlo A375.11 96 hours Emax” value is “** (<90% and >50%)”.

In the case of `CCN(C)S(=O)(=O)Nc1ccc(F)c(Oc2ccc3ncc(CC4CCN(C5CCC(c6ccc(NC7CCC(=O)NC7=O)cc6F)CC5)CC4)nc3c2)c1C#N` (single isomer, unassigned) [Compound 147, 7-[2-cyano-3-[[ethyl(methyl)sulfamoyl]amino]-6-fluoro-phenoxy]-2-[[1-[4-[4-[(2,6-dioxo-3-piperidyl)amino]-2-fluoro-phenyl]cyclohexyl]-4-piperidyl]methyl]quinoxaline], the figures for the DC50 on BRAF V600E (setting [1]) and at BRAF V600E (setting [2]) were below 1 µM and above 10 µM, respectively. In addition, the Emax was in the range of 50 to 90% on BRAF V600E (setting [3]) and 50 to 90% in the experiment on A375-NRAS^Q61K cells (Homo sapiens, 96 h). The compound also came in with a GI50 with A375-NRAS^Q61K cells (Homo sapiens, 96 h) above 10 µM.

In the case of `CCN(C)S(=O)(=O)Nc1ccc(F)c(Oc2ccc3ncc(CC4CCN(C5CCC(c6cc7c(cc6F)c(N6CCC(=O)NC6=O)nn7C)CC5)CC4)nc3c2)c1C#N` (single isomer, unassigned) [Compound 149, 7-[2-cyano-3-[[ethyl(methyl)sulfamoyl]amino]-6-fluoro-phenoxy]-2-[[1-[4-[3-(2,4-dioxohexahydropyrimidin-1-yl)-5-fluoro-1-methyl-indazol-6-yl]cyclohexyl]-4-piperidyl]methyl]quinoxaline], the DC50 at BRAF V600E (setting [1]) and at BRAF V600E (setting [2]) was below 1 µM throughout. Also, the Emax at BRAF V600E (setting [3]) is below 50%; in the experiment with A375-NRAS^Q61K cells (Homo sapiens, 96 h), 50 to 90%. Further, in the experiment on A375-NRAS^Q61K cells (Homo sapiens, 96 h), the GI50 was above 10 µM.

Consider `CCN(C)S(=O)(=O)Nc1ccc(F)c(Oc2ccc3ncn(CCC4CCN(C5CCC(c6ccc(NC7CCC(=O)NC7=O)cc6F)CC5)CC4)c(=O)c3c2)c1C#N` (single isomer, unassigned) [Compound 153, 6-[2-cyano-3-[[ethyl(methyl)sulfamoyl]amino]-6-fluoro-phenoxy]-3-[2-[1-[4-[4-[(2,6-dioxo-3-piperidyl)amino]-2-fluoro-phenyl]cyclohexyl]-4-piperidyl]ethyl]-4-oxo-quinazoline], for which the DC50 at BRAF V600E (setting [1]) is below 1 µM; on BRAF V600E (setting [2]), 1 to 10 µM. The Emax at BRAF V600E (setting [3]) is 50 to 90%; with A375-NRAS^Q61K cells (Homo sapiens, 96 h) it was 50 to 90%. This compound also displayed a GI50 in the experiment on A375-NRAS^Q61K cells (Homo sapiens, 96 h) above 10 µM.

Consider `CCN(C)S(=O)(=O)Nc1ccc(F)c(Oc2ccc3ncn([C@H]4COC5(CCC(N6C7COCC6CC(c6cc8c(cc6F)c(N6CCC(=O)NC6=O)nn8C)C7)CC5)C4)c(=O)c3c2)c1C#N` (single isomer, unassigned) [Compound 155], for which the DC50 on BRAF V600E (setting [1]) and on BRAF V600E (setting [2]) was below 1 µM each time. The Emax lay within 50 to 90% at BRAF V600E (setting [3]) and 50 to 90% in the experiment on A375-NRAS^Q61K cells (Homo sapiens, 96 h). Besides, in the experiment with A375-NRAS^Q61K cells (Homo sapiens, 96 h), the GI50 was above 10 µM.

As to `CCN(C)S(=O)(=O)Nc1ccc(F)c(Oc2ccc3ncc([C@@H]4COC5(CCN(C6CCC(c7cc8c(cc7F)c(N7CCC(=O)NC7=O)nn8C)CC6F)CC5)C4)nc3c2)c1C#N` (single isomer, unassigned) [Compound 163], the DC50 at BRAF V600E (setting [1]) and on BRAF V600E (setting [2]) was below 1 µM each time. For the same compound, the Emax on BRAF V600E (read-out: HiBiT-Degradation A375.10 BRAF 2 hours Emax, A375.10 cells, BRAF V600E, 2 hours, residual protein remaining) is below 50%; with A375-NRAS^Q61K cells (Homo sapiens, 96 h), 50 to 90%. In the experiment on A375-NRAS^Q61K cells (Homo sapiens, 96 h), this compound showed a GI50 of 1 to 10 µM.

As to `CCN(C)S(=O)(=O)Nc1ccc(F)c(Oc2ccc3ncn(C4CC5(CCN(C6CCC(c7ccc(NC8CCC(=O)NC8=O)cc7F)CC6)CC5)C4)c(=O)c3c2)c1F` (single isomer, unassigned) [Compound 166, 3-[7-[4-[4-[(2,6-dioxo-3-piperidyl)amino]-2-fluoro-phenyl]cyclohexyl]-7-azaspiro[3.5]nonan-2-yl]-6-[3-[[ethyl(methyl)sulfamoyl]amino]-2,6-difluoro-phenoxy]-4-oxo-quinazoline], the DC50 at BRAF V600E (setting [1]) is below 1 µM; on BRAF V600E (setting [2]), above 10 µM. Also, the Emax on BRAF V600E (setting [3]) was in the range of 50 to 90%. In the experiment on A375-NRAS^Q61K cells, the “CTGlo A375.11 96 hours Emax” value is given as “* (>=90%)”. This compound also showed a GI50 in the experiment on A375-NRAS^Q61K cells (Homo sapiens, 96 h) of 1 to 10 µM.

For the compound `CCN(C)S(=O)(=O)Nc1ccc(F)c(Oc2ccc3ncn(C4CC5(CCN(C6CCC(c7ccc(NC8CCC(=O)NC8=O)cc7F)CC6)CC5)C4)c(=O)c3c2)c1F` (single isomer, unassigned) [Compound 167, 3-[7-[4-[4-[(2,6-dioxo-3-piperidyl)amino]-2-fluoro-phenyl]cyclohexyl]-7-azaspiro[3.5]nonan-2-yl]-6-[3-[[ethyl(methyl)sulfamoyl]amino]-2,6-difluoro-phenoxy]-4-oxo-quinazoline], the DC50 at BRAF V600E (setting [1]) was below 1 µM. Besides, the DC50 at BRAF V600E (setting [2]) was above 10 µM. The “HiBiT-Degradation A375.10 BRAF 2 hours Emax” value on BRAF V600E (setting [4]) was “** (<90% and >50%)”. Also, in the experiment with A375-NRAS^Q61K cells, the GI50 lay in the range of 1 to 10 µM; the “CTGlo A375.11 96 hours Emax” value was “** (<90% and >50%)”.

Turning to `CN(CCO)S(=O)(=O)Nc1ccc(F)c(Oc2ccc3ncc([C@H]4COC5(CCN(C6CCC(c7cc8c(cc7F)c(N7CCC(=O)NC7=O)nn8C)CC6F)CC5)C4)nc3c2)c1C#N` (single isomer, unassigned) [Compound 170], the DC50 at BRAF V600E (setting [1]) is below 1 µM; at BRAF V600E (setting [2]), above 10 µM. Besides, the Emax at BRAF V600E (setting [3]) was in the range of 50 to 90%; with A375-NRAS^Q61K cells (Homo sapiens, 96 h), 50 to 90%. For the same compound, in the experiment with A375-NRAS^Q61K cells (Homo sapiens, 96 h), the GI50 was in the range of 1 to 10 µM.

As for `CN(CCO)S(=O)(=O)Nc1ccc(F)c(Oc2ccc3ncc([C@@H]4COC5(CCN(C6CCC(c7cc8c(cc7F)c(N7CCC(=O)NC7=O)nn8C)CC6F)CC5)C4)nc3c2)c1C#N` (single isomer, unassigned) [Compound 172], the DC50 at BRAF V600E (setting [1]) is below 1 µM; at BRAF V600E (setting [2]), above 10 µM. Moreover, the Emax at BRAF V600E (setting [3]) is 50 to 90%; in the experiment with A375-NRAS^Q61K cells (Homo sapiens, 96 h), 50 to 90%. The same compound displayed a GI50 in the experiment on A375-NRAS^Q61K cells (Homo sapiens, 96 h) of 1 to 10 µM.

In the case of `CN(CCO)S(=O)(=O)Nc1ccc(F)c(Oc2ccc3ncc([C@@H]4COC5(CCN(C6CCC(c7cc8c(cc7F)c(N7CCC(=O)NC7=O)nn8C)CC6)CC5)C4)nc3c2)c1C#N` (single isomer, unassigned) [Compound 174], the DC50 at BRAF V600E (setting [1]) and on BRAF V600E (setting [2]) was below 1 µM in each case. Further, the Emax at BRAF V600E (setting [3]) was below 50%; in the experiment with A375-NRAS^Q61K cells (Homo sapiens, 96 h) it was 50 to 90%. In addition, the GI50 in the experiment with A375-NRAS^Q61K cells (Homo sapiens, 96 h) was below 1 µM.
